{"source": "patent US20110224186A1", "about": "“CARBACEPHEM BETA-LACTAM ANTIBIOTICS” (Achaogen, Inc., priority 2008, published 2011)", "assay_in_all_cases": "MIC assay, broth microdilution in CAMHB", "type_in_all_cases": "cell-based", "key": {"[1]": {"tested_on": "S. aureus ASAU001 (Susceptible Organism ATCC 29213)", "conditions": "16-20 h at 35° C.; for MIC: Staphylococcus aureus, ATCC29213, 2% NaCl, read-out: MIC ASAU 001", "procedure": "(§1) The in vitro MIC for bacterial isolates may be obtained in the following manner: a test compound is incorporated into a series of two-fold dilutions in cation adjusted Mueller-Hinton broth (CAMHB). Different bacterial strains diluted to provide a uniform inoculum are added to the CAMHB containing test compounds. A well without test compound is included for each strain as a growth control. […] The procedures used in these experiments are generally those standardized by the Clinical and Laboratory Standards Institute (CLSI), as set forth in the CLSI publication entitled “M7-A7. Methods for dilution antimicrobial susceptibility tests for bacteria that grow aerobically; approved standard-seventh edition.” (2006), which is incorporated by reference as if fully set forth herein. The following exemplifies such a procedure although it is to be understood that modifications of the procedure may be implemented as required.\n(§2) Two-fold dilutions of the test compounds are prepared in CAMHB at 2× the concentration range to be tested if the compounds are soluble in aqueous solution. Alternately, dimethylsulfoxide (DMSO) is used to prepare two-fold dilutions at 10× the concentration range to be tested. Reference drugs such as cefotaxime, vancomycin or imipenem are used as positive controls. A few isolated colonies are retrieved from a pure culture prepared on an agar plate and suspended in PBS until the turbidity of the suspension matches a 0.5 McFarland standard which is equal to approximately 10^8 CFU/mL. This solution is further diluted in CAMHB to 10^6 CFU/mL if compounds are diluted in CAMHB and 5×10^5 CFU/mL if compounds are diluted in DMSO. The CAMHB plates containing the compound dilutions are combined in equal volumes with the higher density inoculum, or 10 μL of the DMSO dilutions are added to the lower density inoculum. When S. aureus is the organism being tested and the compound is oxacillin, a beta-lactam or a carbacephem compound of the present invention, 2% NaCl is added to the growth media. The plates are then incubated for 16-20 h at 35° C. The plates are then observed to determine which concentration of the test compound is the MIC."}, "[2]": {"tested_on": "S. aureus ASAU002 (MRSA ATCC 33591)", "conditions": "2% NaCl, 16-20 h at 35° C.; for MIC: Staphylococcus aureus, read-out: MIC ASAU 002", "procedure": "as §1, §2"}, "[3]": {"tested_on": "S. aureus ASAU1043 (MRSA, CIP, ERY, CLI, GEN resistant)", "conditions": "2% NaCl, 16-20 h at 35° C.; for MIC: Staphylococcus aureus, read-out: MIC ASAU 1043", "procedure": "as §1, §2"}, "[4]": {"tested_on": "S. aureus ASAU1033 (MRSA, CIP, ERY, CLIN, TET, GEN resistant)", "conditions": "2% NaCl, 16-20 h at 35° C.; for MIC: Staphylococcus aureus, read-out: MIC ASAU 1033", "procedure": "as §1, §2"}, "[5]": {"tested_on": "S. aureus ASAU1029 (CA-MRSA, USA300)", "conditions": "2% NaCl, 16-20 h at 35° C.; for MIC: Staphylococcus aureus, read-out: MIC ASAU 1029", "procedure": "as §1, §2"}, "[6]": {"tested_on": "S. aureus ASAU1028 (CA-MRSA, USA400)", "conditions": "2% NaCl, 16-20 h at 35° C.; for MIC: Staphylococcus aureus, read-out: MIC ASAU 1028", "procedure": "as §1, §2"}}, "data": [{"smiles": "Nc1nnc(SC2=C(C(=O)O)N3C(=O)[C@@H](NC(=O)/C(=N\\O)c4nc(N)sc4Cl)[C@H]3CC2)s1", "note": "[Comparative Compound 2, reference compound]", "values": [{"measurement": "MIC", "setting": "[1]", "result": "≤ 1", "unit": "µg/mL"}, {"measurement": "MIC", "setting": "[2]", "result": "≤ 1", "unit": "µg/mL"}, {"measurement": "MIC", "setting": "[3]", "result": "1 to 8", "unit": "µg/mL"}, {"measurement": "MIC", "setting": "[4]", "result": "1 to 8", "unit": "µg/mL"}, {"measurement": "MIC", "setting": "[5]", "result": "1 to 8", "unit": "µg/mL"}, {"measurement": "MIC", "setting": "[6]", "result": "1 to 8", "unit": "µg/mL"}]}, {"smiles": "Nc1nc(/C(=N\\O)C(=O)NC2C(=O)N3C(C(=O)O)=C(/C=C4\\CCN(C5CCNC5)C4=O)CS[C@H]23)ns1", "note": "(stereo partly drawn) [Comparative Compound 1, reference compound]", "values": [{"measurement": "MIC", "setting": "[1]", "result": "≤ 1", "unit": "µg/mL"}, {"measurement": "MIC", "setting": "[2]", "result": "1 to 8", "unit": "µg/mL"}, {"measurement": "MIC", "setting": "[3]", "result": "1 to 8", "unit": "µg/mL"}, {"measurement": "MIC", "setting": "[4]", "result": "1 to 8", "unit": "µg/mL"}, {"measurement": "MIC", "setting": "[5]", "result": "≤ 1", "unit": "µg/mL"}, {"measurement": "MIC", "setting": "[6]", "result": "≤ 1", "unit": "µg/mL"}]}, {"smiles": "Nc1nc(/C(=N/O)C(=O)N[C@@H]2C(=O)N3C(C(=O)O)=C(SCSc4nncs4)CC[C@H]23)c(Cl)s1", "note": "[Example 23, (6R,7S,Z)-3-((1,3,4-thiadiazol-2-ylthio)methylthio)-7-(2-(2-amino-5-chlorothiazol-4-yl)-2-(hydroxyimino)acetamido)-8-oxo-1-aza-bicyclo[4.2.0]oct-2-ene-2-carboxylic acid]", "values": [{"measurement": "MIC", "setting": "[1]", "result": "≤ 1", "unit": "µg/mL"}, {"measurement": "MIC", "setting": "[2]", "result": "1 to 8", "unit": "µg/mL"}, {"measurement": "MIC", "setting": "[3]", "result": "> 8", "unit": "µg/mL"}, {"measurement": "MIC", "setting": "[4]", "result": "> 8", "unit": "µg/mL"}, {"measurement": "MIC", "setting": "[5]", "result": "1 to 8", "unit": "µg/mL"}, {"measurement": "MIC", "setting": "[6]", "result": "1 to 8", "unit": "µg/mL"}]}, {"smiles": "Nc1nc(/C(=N/O)C(=O)N[C@@H]2C(=O)N3C(C(=O)O)=C(SCc4ccncc4)CC[C@H]23)c(Cl)s1", "note": "[Example 17, (6R,7S,Z)-7-(2-(2-amino-5-chlorothiazol-4-yl)-2-(hydroxyimino)acetamido)-8-oxo-3-(pyridin-4-ylmethylthio)-1-aza-bicyclo[4.2.0]oct-2-ene-2-carboxylic acid]", "values": [{"measurement": "MIC", "setting": "[1]", "result": "≤ 1", "unit": "µg/mL"}, {"measurement": "MIC", "setting": "[2]", "result": "> 8", "unit": "µg/mL"}, {"measurement": "MIC", "setting": "[3]", "result": "> 8", "unit": "µg/mL"}, {"measurement": "MIC", "setting": "[4]", "result": "> 8", "unit": "µg/mL"}, {"measurement": "MIC", "setting": "[5]", "result": "1 to 8", "unit": "µg/mL"}, {"measurement": "MIC", "setting": "[6]", "result": "1 to 8", "unit": "µg/mL"}]}, {"smiles": "Cc1ncsc1/C=C\\C1=C(C(=O)O)N2C(=O)[C@@H](NC(=O)/C(=N\\O)c3nc(N)sc3Cl)[C@H]2CC1", "note": "[Example 29, (6R,7S)-7-((Z)-2-(2-amino-5-chlorothiazol-4-yl)-2-(hydroxyimino)acetamido)-3-((Z)-2-(4-methylthiazol-5-yl)vinyl)-8-oxo-1-aza-bicyclo[4.2.0]oct-2-ene-2-carboxylic acid]", "values": [{"measurement": "MIC", "setting": "[1]", "result": "≤ 1", "unit": "µg/mL"}, {"measurement": "MIC", "setting": "[2]", "result": "1 to 8", "unit": "µg/mL"}, {"measurement": "MIC", "setting": "[3]", "result": "1 to 8", "unit": "µg/mL"}, {"measurement": "MIC", "setting": "[4]", "result": "1 to 8", "unit": "µg/mL"}, {"measurement": "MIC", "setting": "[5]", "result": "≤ 1", "unit": "µg/mL"}, {"measurement": "MIC", "setting": "[6]", "result": "≤ 1", "unit": "µg/mL"}]}, {"smiles": "Nc1nc(/C(=N/O)C(=O)N[C@@H]2C(=O)N3C(C(=O)O)=C(SCc4cn[nH]c4)CC[C@H]23)c(Cl)s1", "note": "[Example 27, (6R,7S,Z)-3-((1H-pyrazol-4-yl)methylthio)-7-(2-(2-amino-5-chlorothiazol-4-yl)-2-(hydroxyimino)acetamido)-8-oxo-1-aza-bicyclo[4.2.0]oct-2-ene-2-carboxylic acid]", "values": [{"measurement": "MIC", "setting": "[1]", "result": "≤ 1", "unit": "µg/mL"}, {"measurement": "MIC", "setting": "[2]", "result": "1 to 8", "unit": "µg/mL"}, {"measurement": "MIC", "setting": "[3]", "result": "> 8", "unit": "µg/mL"}, {"measurement": "MIC", "setting": "[4]", "result": "> 8", "unit": "µg/mL"}, {"measurement": "MIC", "setting": "[5]", "result": "1 to 8", "unit": "µg/mL"}, {"measurement": "MIC", "setting": "[6]", "result": "1 to 8", "unit": "µg/mL"}]}, {"smiles": "Nc1nc(/C(=N/O)C(=O)N[C@@H]2C(=O)N3C(C(=O)O)=C(/C=C4\\CCN([C@@H]5CCNC5)C4=O)CC[C@H]23)c(Cl)s1", "note": "[Example 34, (6R,7S)-7-((Z)-2-(2-amino-5-chlorothiazol-4-yl)-2-(hydroxyimino)acetamido)-8-oxo-3-((E)-((R)-2-oxo-1,3′-bipyrrolidin-3-ylidene)methyl)-1-aza-bicyclo[4.2.0]oct-2-ene-2-carboxylic acid]", "values": [{"measurement": "MIC", "setting": "[1]", "result": "≤ 1", "unit": "µg/mL"}, {"measurement": "MIC", "setting": "[2]", "result": "1 to 8", "unit": "µg/mL"}, {"measurement": "MIC", "setting": "[3]", "result": "1 to 8", "unit": "µg/mL"}, {"measurement": "MIC", "setting": "[4]", "result": "1 to 8", "unit": "µg/mL"}, {"measurement": "MIC", "setting": "[5]", "result": "≤ 1", "unit": "µg/mL"}, {"measurement": "MIC", "setting": "[6]", "result": "1 to 8", "unit": "µg/mL"}]}, {"smiles": "CNc1nnc(SCSC2=C(C(=O)O)N3C(=O)[C@@H](NC(=O)/C(=N\\O)c4nc(N)sc4Cl)[C@H]3CC2)s1", "note": "[Example 25, (6R,7S,Z)-7-(2-(2-amino-5-chlorothiazol-4-yl)-2-(hydroxyimino)acetamido)-3-((5-(methylamino)-1,3,4-thiadiazol-2-ylthio)methylthio)-8-oxo-1-aza-bicyclo[4.2.0]oct-2-ene-2-carboxylic acid]", "values": [{"measurement": "MIC", "setting": "[1]", "result": "≤ 1", "unit": "µg/mL"}, {"measurement": "MIC", "setting": "[2]", "result": "1 to 8", "unit": "µg/mL"}, {"measurement": "MIC", "setting": "[3]", "result": "> 8", "unit": "µg/mL"}, {"measurement": "MIC", "setting": "[4]", "result": "> 8", "unit": "µg/mL"}, {"measurement": "MIC", "setting": "[5]", "result": "1 to 8", "unit": "µg/mL"}, {"measurement": "MIC", "setting": "[6]", "result": "1 to 8", "unit": "µg/mL"}]}, {"smiles": "Nc1nc(/C(=N/O)C(=O)N[C@@H]2C(=O)N3C(C(=O)O)=C(SCc4ccccc4)CC[C@H]23)c(Cl)s1", "note": "[Example 18, (6R,7S,Z)-7-(2-(2-amino-5-chlorothiazol-4-yl)-2-(hydroxyimino)acetamido)-3-(benzylthio)-8-oxo-1-aza-bicyclo[4.2.0]oct-2-ene-2-carboxylic acid]", "values": [{"measurement": "MIC", "setting": "[1]", "result": "≤ 1", "unit": "µg/mL"}, {"measurement": "MIC", "setting": "[2]", "result": "≤ 1", "unit": "µg/mL"}, {"measurement": "MIC", "setting": "[3]", "result": "1 to 8", "unit": "µg/mL"}, {"measurement": "MIC", "setting": "[4]", "result": "1 to 8", "unit": "µg/mL"}, {"measurement": "MIC", "setting": "[5]", "result": "≤ 1", "unit": "µg/mL"}, {"measurement": "MIC", "setting": "[6]", "result": "≤ 1", "unit": "µg/mL"}]}, {"smiles": "Cc1ncsc1/C=C\\C1=C(C(=O)O)N2C(=O)[C@@H](NC(=O)/C(=N\\O)c3nc(N)sc3Cl)[C@H]2CC1", "note": "[Example 31, (6R,7S)-7-((Z)-2-(2-amino-5-chlorothiazol-4-yl)-2-(hydroxyimino)acetamido)-3-((Z)-2-(4-methylthiazol-5-yl)vinyl)-8-oxo-1-aza-bicyclo[4.2.0]oct-2-ene-2-carboxylic acid]", "values": [{"measurement": "MIC ASAU 001", "setting": "[1]; 2% NaCl", "result": "A (MIC's of 1.0 μg/mL or less = A)"}, {"measurement": "MIC ASAU 002", "setting": "[2]", "result": "B (MIC's of greater than 1.0 μg/mL to 8.0 μg/mL = B)"}, {"measurement": "MIC ASAU 1043", "setting": "[3]", "result": "B (MIC's of greater than 1.0 μg/mL to 8.0 μg/mL = B)"}, {"measurement": "MIC ASAU 1033", "setting": "[4]", "result": "B (MIC's of greater than 1.0 μg/mL to 8.0 μg/mL = B)"}, {"measurement": "MIC ASAU 1029", "setting": "[5]", "result": "B (MIC's of greater than 1.0 μg/mL to 8.0 μg/mL = B)"}, {"measurement": "MIC ASAU 1028", "setting": "[6]", "result": "B (MIC's of greater than 1.0 μg/mL to 8.0 μg/mL = B)"}]}]}
